Measured values published in publication PMC7999199, “Novel Cationic Meso-Arylporphyrins and Their Antiviral Activity against HSV-1” (Pharmaceuticals, 2021).

How the values were obtained:
[1] = tested on: HSV-1 replication in Vero cells; assay: Influence of the compounds on HSV-1 virus yield during infection of Vero cells (early/late replication stages); format: cell-based, herpes simplex virus type 1; conditions: for stages of HSV-1 replication affected: Vero cells, MOI 0.1; for effect on HSV-1 replication: simultaneous addition with the virus
Experimental: Porphyrin’s antiviral action was then determined in terms of their effect on the HSV-1 replication stages in Vero cells. A two-part experiment was conducted to evaluate the influence of the obtained compounds on the early or late stages of replication (Figure 6). First, the effect of porphyrins on the initial stages of reproduction was estimated. Thus, HSV-1 at MOI 0.1 was adsorbed on Vero cells in a medium containing the studied porphyrin; then the cell monolayers were washed from the nonadsorbed virus, and porphyrins of the same concentration were introduced into the plate (1) (Vero Cells + HSV-1 + Porphyrin, left arrow. Figure 6), or the cell monolayers were washed from the nonadsorbed virus, and the medium without the test compound was introduced into the cell monolayers microwell plate (2) (Porphyrin + HSV-1 + Porphyrin medium, right arrow. Figure 6).
The influence of porphyrin antiviral activity on the HSV-1 postadsorption stages was simultaneously evaluated in this experiment. The studied compounds were introduced after HSV-1 adsorption on Vero cells and washing of nonadsorbed virus particles (3) (Vero Cells +HSV-1, left arrow. Figure 6) or, after virus adsorption and nonadsorbed virus particles washing, only the medium was introduced (control of virus reproduction) (4) (Vero Cells +HSV-1, right arrow. Figure 6). After the formation of a pronounced cytopathic effect of the virus in control cultures (48 h of cultivation), the virus infection activity of all the samples was determined by titration in a Vero cell culture (Figure 7).
Four variants were used to test compound efficiency in controlling development of infection in Vero cells. The Vero cells were seeded in 24-well plate in 1 mL of DMEM-5% FCS. (1) The cell monolayers were treated simultaneously with HSV-1 (MOI 0.1) in DMEM-1% FCS (900 µL) and investigated compounds in DMEM-1% FCS (100 µL) for 2 h at 36.8 °C in 5% CO2 atmosphere; then the cell monolayers were washed from the nonadsorbed virus and treated with 900 µL of DMEM-1%FCS and the same concentrations of compounds (100 µL). (2) The cell monolayers were treated simultaneously with HSV-1 (MOI 0.1) DMEM-1% FCS (900 µL) and compounds DMEM-1%FCS (100 µL) for 2 h at 36.8 °C in 5% CO2 atmosphere, and then the cell monolayers were washed from the nonadsorbed virus, after which only DMEM-1% FCS (1 mL) was added. (3) The cell monolayers were treated with HSV-1 (MOI 0.1) DMEM-1% FCS (900 µL) and DMEM-1% FCS (100 µL) for 2 h at 36.8 °C in 5% CO2 atmosphere and washed from the nonadsorbed virus; then DMEM-1% FCS (900 µL) and the same compounds in DMEM-1% FCS (100 µL) were added. (4) Control: the cell monolayers were treated with HSV-1 (MOI 0.1) in DMEM-1% FCS (900 µL), and DMEM-1% FCS (100 µL) was added for 2 h at 36.8 °C in 5% CO2 atmosphere and washed from the nonadsorbed virus, and then DMEM-1% FCS (1 mL) was added. In all variants, the treated cells were then incubated at 36.8 °C in 5% CO2 atmosphere.
After the development of a cytopathic effect in control cultures (HSV-1 + medium, 48 h), the virus content was determined in samples of the culture medium by applying ten-fold dilutions (100 µL) on a monolayers of Vero cells in wells of 96-well plates. After three days, virus titers were counted, and the percentage of inhibition regarding the titer of the virus in the control, which was taken as 100%, was determined. The results were presented as the average of three experiments of four replays.
Figure 7 Inhibitory effect of porphyrins on the HSV-1 replication. The Vero cells were treated with compounds 3a (100 µM) (a), 3b (12 µM and 6 µM) (b) and TMePyP (50 µM, 25 µM and 12.5 µM) (c) simultaneously with HSV-1 (MI 0.1) or after HSV-1 (MI 0.1) adsorption. The results are presented as the percentage of the virus titer with porphyrin relative to its titer in the control (without porphyrin), which was taken as 100%. Each bar represents the mean ± deviation. […]

[2] = n-Octanol/PBS partition coefficient; format: physicochemical; conditions: 1-n-octanol/PBS, pH 7; read-out: LogP (LogPow, 1-n-octanol/water partition coefficient)
Experimental: The normalized UV-vis spectra, as well as the fluorescence spectra in DMSO and ethanol, are shown in Figures S1 and S2 (Supplementary Information). Fluorescence quantum yields were measured as compared with 5,10,15,20-tetrakisphenylporphyrin (TPP) (ΦF = 0.11) and ZnTPP (ΦF = 0.033). For free-base compounds 3a,b fluorescence quantum yields were similar at ca. 0.13 in DMSO and ca. 0.14, respectively. Octanol-water distribution coefficients were calculated using 1-n-octanol and phosphate-buffered saline (PBS), according to the method described in [53]. […] As expected, compound 3a was more hydrophilic (LogPow = −4.86) than 3b (LogPow = −4.6). Such an effect can be associated with the increase in the number of methylene spacers in compound 3b.
The distribution coefficient was measured using 1-n-octanol and phosphate buffered saline (PBS), which were presaturated with each other by the described method. […] The absorption of each layer was measured spectrophotometrically in the region of the Soret band. Partition coefficients were calculated as the ratio between absorption in the Soret band of photosensitizers in organic and aqueous phase and the dilution factors for the organic and aqueous layers, according to the aforementioned method.

Structure (SMILES)	stages of HSV-1 replication affected [1]	effect on HSV-1 reproduction ([1]; compound only at the cell infection stage (3a + HSV-1 + media), 100 µM, MOI 0.1, 48 h)	effect on HSV-1 reproduction ([1]; compound with virus and after washing (3a + HSV-1 + 3a) or post-infection (HSV-1 + 3a), 100 µM, MOI 0.1, 48 h)	logP [2]	effect on HSV-1 reproduction ([1]; introduced at the stage of virus adsorption, 12 μM)	effect on HSV-1 replication ([1]; 25 μM)	effect on HSV-1 replication ([1]; 50 μM)
O=C(CC[n+]1ccccc1)Oc1ccc(-c2c3nc(c(-c4ccc(OC(=O)CC[n+]5ccccc5)cc4)c4ccc([nH]4)c(-c4ccc(OC(=O)CC[n+]5ccccc5)cc4)c4nc(c(-c5ccc(OC(=O)CC[n+]6ccccc6)cc5)c5ccc2[nH]5)C=C4)C=C3)cc1 [3a]	acts on both the initial and postadsorption stages of virus replication	did not significantly suppress the reproduction of the virus	suppressed the reproduction of the virus	-4.86	–	–	–
C[n+]1ccc(-c2c3nc(c(-c4cc[n+](C)cc4)c4ccc([nH]4)c(-c4cc[n+](C)cc4)c4nc(c(-c5cc[n+](C)cc5)c5ccc2[nH]5)C=C4)C=C3)cc1 [TMePyP, 5,10,15,20-tetrakis(1-methyl-4-pyridinio)porphyrin tetraiodide, reference compound]	affected both the initial and late stages of virus replication	–	–	–	did not suppress the HSV-1 reproduction	completely suppressed its replication	completely suppressed its replication
